These results are taken from publication PMC12552119, “Tailored structured peptide design with a key-cutting machine approach” (Nature Machine Intelligence, 2025).

Entries after “also recorded” stand apart in the source; their conditions may differ. Read-outs that look alike come from different tables or passages of the source. Where no end group is shown, it is not given here.

Broadly, the MIC is the lowest concentration that inhibits growth of the organism. A lower MIC goes with greater potency.

The format of series [1] is in vivo, CD-1 mice. As to conditions: deep thigh infection model. The method, then: Six-week-old female CD-1 mice were rendered neutropenic by two doses of cyclophosphamide (150 mg kg^−1 and 100 mg kg^−1) applied intraperitoneally 3 and 1 d before the infection. On day 4 of the experiment, the mice were infected in their right thighs with a 100-μl intramuscular injection of the A. baumannii ATCC 19606 in PBS at concentration of 5 × 10^6 CFU ml^−1. The bacterial cells were grown in LB broth, washed twice with PBS solution and diluted at the desired concentration. The peptides were administrated intraperitoneally 2 h after the infection. Two days after infection mice were euthanized, and the tissue from the right thigh was excised, homogenized using a bead beater (25 Hz for 20 min), tenfold serially diluted, and plated on McConkey agar plates for bacterial colony counting. The experiments were performed using six mice per group. […]
Figure S6. […] Mouse weight was monitored throughout the duration of the (b) skin abscess model (4 days total) and the (e) deep thigh infection model (8 days total) to assess potential toxic effects of both the bacterial load and the designed peptides. […] Anti-infective activity against A. baumannii ATCC 19606 was evaluated 4 days after intraperitoneal peptide administration (n = 6). […]
(§1) Statistical significance in panel d was determined using one-way ANOVA followed by Dunnett’s test; P values are shown in the graphs. […]

Series [2] concerns E. faecium ATCC 700221 - VRE. The format is cell-based. To be noted: ATCC 700221, 24 h. Here is the method: (§2) Fig. 2 Antimicrobial activity and secondary structure of computationally designed peptides. a, Structure prediction of the synthesized peptides. b, Heatmap of the antimicrobial activities of the peptides against 11 clinically relevant pathogens, including four strains resistant to conventional antibiotics. Briefly, 10^6 bacterial cells and serially diluted peptides (1-64 μmol l^−1) were incubated at 37 °C. One day after treatment, the optical density at 600 nm was measured in a microplate reader to evaluate bacterial growth in the presence of the peptides. MIC values in the heatmap are the mode of the replicates in each condition. c–f, Ternary plots showing the percentage of secondary structure for each peptide (at 50 μmol l^−1) in four different solvents: water (c), 60% TFE in water (d), 10 mmol l^−1 SDS in water (e) and 50% methanol (MeOH) in water (f). Secondary structure fractions were calculated using the BeStSel server. […] An error of one column cannot be fully excluded. / Panel b: AT1, AT2, AT3 and all blank cells print no number and are left out.
(§3) Broth microdilution assays[64] were conducted to establish the MIC for each peptide. Peptides were added to untreated polystyrene 96-well microtiter plates and serially diluted twofold in sterile water, ranging from 1 to 64 μmol l^−1. A bacterial inoculum at a concentration of 10^6 CFU ml^−1 in LB medium was then mixed in a 1:1 ratio with the peptide solution. […] Each assay was performed in three independent replicates.

For another series, the system named is E. coli ATCC 11775. The format is cell-based, Escherichia coli. To be noted: ATCC 11775, 24 h. The method, then: as §2
Broth microdilution assays[64] were conducted to establish the MIC for each peptide. Peptides were added to untreated polystyrene 96-well microtiter plates and serially diluted twofold in sterile water, ranging from 1 to 64 μmol l^−1. […]

Series [3] concerns A. baumannii ATCC 19606. The format is cell-based, Acinetobacter baumannii. Here is the method: as §2
(§4) In this study, we used the following pathogenic bacterial strains: A. baumannii ATCC 19606, E. coli AIC221 (E. coli MG1655 phnE_2::FRT (control strain for AIC222)) and E. coli AIC222 (E. coli MG1655 pmrA53 phnE_2::FRT (polymyxin resistant; colistin-resistant strain)), Klebsiella pneumoniae ATCC 13883, Pseudomonas aeruginosa PAO1, P. aeruginosa PA14 and Staphylococcus aureus ATCC 12600. All pathogens were grown in Luria–Bertani (LB) broth and on LB agar. Pseudomonas isolation (P. aeruginosa strains) agar plates were exclusively used in the case of Pseudomonas species. In all the experiments, bacteria were inoculated from one isolated colony and grown overnight (16 h) in liquid medium at 37 °C. On the following day, inocula were diluted 1:100 in fresh media and incubated at 37 °C to mid-logarithmic phase.
as §3

Series [4] can be described thus: Mouse weight in the skin abscess model. More on the design: species or system CD-1 mice. To be noted: in vivo. The method, then: (§5) The backs of six-week-old female CD-1 mice under anaesthesia were shaved and injured with a superficial linear skin abrasion made with a needle. An aliquot of A. baumannii ATCC 19606 (2 × 10^6 CFU ml^−1; 20 μl) previously grown in LB medium until 0.5 optical density ml^−1 (optical value at 600 nm) and then washed twice with sterile PBS (pH 7.4, 9,391 g for 3 min) was added to the scratched area. Peptides diluted in sterile water at MIC value were administered to the wound area 1 h after the infection. Two and four days after infection animals were euthanized, and the scarified skin was excised, homogenized using a bead beater (25 Hz for 20 min), tenfold serially diluted, and plated on McConkey agar plates for CFU quantification. The experiments were performed using six mice per group. Mice were housed in groups of three and maintained under a 12-h light/dark cycle at 22 °C with humidity controlled at 50%. The skin abscess infection mouse model was revised and approved by University Laboratory Animal Resources from the University of Pennsylvania (protocol 806763).
(§6) Figure S6. Cytotoxicity and anti-infective activity of designed peptides. (a) Cytotoxic effects of increasing concentrations ([…]) of each peptide on human embryonic kidney (HEK293T) cells after 24 h of treatment. Mouse weight was monitored throughout the duration of the (b) skin abscess model (4 days total) and the (e) deep thigh infection model (8 days total) to assess potential toxic effects of both the bacterial load and the designed peptides. (c) Schematic of the neutropenic thigh infection mouse model, where the designed peptides were administered intraperitoneally. Anti-infective activity against A. baumannii ATCC 19606 was evaluated 4 days after intraperitoneal peptide administration (n = 6). (d) Four days after intraperitoneal injection, NE2 at its MIC (32 µmol L-1) inhibited by […]
as §1

The test system of series [5] is A. baumannii ATCC 19606. Put plainly: Deep thigh infection mouse model, bacterial load. The format is in vivo, CD-1 mice. As to conditions: n = 6; for reduction of A. baumannii bacterial load, deep thigh infection model: neutropenic mice, peptides intraperitoneally. Here is the method:
Six-week-old female CD-1 mice were rendered neutropenic by two doses of cyclophosphamide (150 mg kg^−1 and 100 mg kg^−1) applied intraperitoneally 3 and 1 d before the infection. On day 4 of the experiment, the mice were infected in their right thighs with a 100-μl intramuscular injection of the A. baumannii ATCC 19606 in PBS at concentration of 5 × 10^6 CFU ml^−1. The bacterial cells were grown in LB broth, washed twice with PBS solution and diluted at the desired concentration. The peptides were administrated intraperitoneally 2 h after the infection. Two days after infection mice were euthanized, and the tissue from the right thigh was excised, homogenized using a bead beater (25 Hz for 20 min), tenfold serially diluted, and plated on McConkey agar plates for bacterial colony counting. The experiments were performed using six mice per group. Mice were housed in groups of three and maintained under a 12-h light/dark cycle at 22 °C with humidity controlled at 50%. The deep thigh infection mouse model was revised and approved by University Laboratory Animal Resources from the University of Pennsylvania (protocol 807055).
as §6, §1

A further series deals with P. aeruginosa PA14. The format is cell-based, Pseudomonas aeruginosa. To be noted: PA14, 24 h. Here is the method:
as §2, §4
(§7) Broth microdilution assays[64] were conducted to establish the MIC for each peptide. […]

For the next series, the system named is P. aeruginosa PAO1. The format is cell-based, Pseudomonas aeruginosa. To be noted: PAO1, 24 h. The method, then:
as §2, §4, §7

For a further series, the system named is K. pneumoniae ATCC 13883. The format is cell-based, Klebsiella pneumoniae. As to conditions: ATCC 13883, 24 h. The method, then:
as §2, §4, §3

The test system of series [6] is A. baumannii ATCC 19606. Put plainly: Skin abscess infection mouse model, bacterial load. The format is in vivo, CD-1 mice. To be noted: single dose at MIC on the wound 1 h after infection, n = 6. Here is the method:
Fig. 4 Anti-infective activity of designed peptides in a skin scarification animal model. a, Schematic representation of the skin abscess mouse model used to assess the anti-infective activity of the designed peptides (n = 6) against A. baumannii ATCC 19606. […] Statistical significance in panel b was determined using one-way ANOVA followed by Dunnett’s test; P values are shown in the graphs. In the violin, the centre line represents the […], the box limits the first and third quartiles and the whiskers (minima and maxima) represent 1.5 × the interquartile range. Panel a created with BioRender.com. Source data
as §5, with “The experiments were performed using six mice per group. Mice were housed in groups of three and maintained under a 12-h light/dark cycle at 22 °C with humidity controlled at 50%. The skin abscess infection mouse model was revised and approved by University Laboratory Animal Resources from the University of Pennsylvania (protocol 806763).” left out

Series [7] has as its system A. baumannii ATCC 19606. Kind of series: Cytoplasmic-membrane depolarization, DiSC3-5. The format is cell-based, Acinetobacter baumannii. To be noted: DiSC3-5 fluorescence, peptides at their MIC, 60 min. Here is the method: Fig. 3 Mechanism of action and cytotoxic activity of designed peptides. a, To assess whether the peptides act on bacterial membranes, all active peptides against A. baumannii American Type Culture Collection (ATCC) 19606 were subjected to outer-membrane permeabilization, and peptides active against A. baumannii ATCC 19606 and vancomycin-resistant E. faecalis ATCC 700802 were tested in cytoplasmic-membrane depolarization assays. b, The fluorescent probe NPN was used to assess membrane permeabilization induced by the tested peptides. c,d, The fluorescent probe DiSC3-5 was used to evaluate membrane depolarization caused by the designed peptides in A. baumannii ATCC 19606 (c) and vancomycin-resistant E. faecalis ATCC 700802 (d). […] All experiments were performed in three independent replicates. […]
The cytoplasmic-membrane depolarization assay was performed using the membrane-potential-sensitive dye DiSC3-5. […] Membrane depolarization was then followed by reading changes in the fluorescence (λex = 622 nm, λem = 670 nm) over time for 60 min. The relative fluorescence was calculated using the untreated control (buffer + bacteria + fluorescent dye) as baseline and the following equation was applied to reflect the percentage difference between the baselines and the sample: percentagedifference=100×(fluorescencesample−fluorescenceuntreatedcontrol)/fluorescenceuntreatedcontrol. […]

The test system of another series is E. coli AIC221. The format is cell-based, Escherichia coli. To be noted: AIC221, 24 h. The method, then: as §2, with “out. […]” for “out.”
Another series relates to HEK293T cells. As to conditions: cited from earlier work.
Where [8] appears, read: broth microdilution, LB, 10^6 CFU ml^-1, peptides 1-64 μmol l^-1, 24 h, 37 °C, OD600, mode of three replicates.

Method for HEK293T cells: Cytotoxicity was evaluated using human embryonic kidney (HEK293T) cells (Fig. 3e)[45].

As to HWKLIVRWKVQH [NG1], the “weight loss or skin damage” value in series [1] and in series [4] was “No weight loss or skin damage” in each case. Further, the MIC in series [2] came out at 4 µM; in the series with E. coli ATCC 11775 it was 16 µM; against A. baumannii ATCC 19606 [3] (ATCC 19606, 24 h), 4 µM; with A. baumannii ATCC 19606 [3] (setting [8]) it was 4 µM; in the series with P. aeruginosa PA14, 16 µM; against P. aeruginosa PAO1 it was 32 µM. This sequence also came in with an MIC against K. pneumoniae ATCC 13883 of 4 µM. Further, the “reduction of A. baumannii bacterial load, deep thigh infection model” value with A. baumannii ATCC 19606 [5] is listed as “up to two orders of magnitude”. Moreover, the “reduction of A. baumannii bacterial load, skin abscess model” value with A. baumannii ATCC 19606 [6] is reported as “up to two orders of magnitude; also recorded: inhibited the proliferation of the infection for up to 4 d after treatment”.
For the sequence KFKLIVHYRICK [NG3], the cytoplasmic-membrane depolarization result in the series on A. baumannii ATCC 19606 [7] is “particularly effective”. In addition, the MIC was 32 µM against A. baumannii ATCC 19606 [3] (ATCC 19606, 24 h); 16 µM against K. pneumoniae ATCC 13883; 8 µM in the series with E. coli AIC221.
Consider KWKARIQFKAAH [NE2], for which the “weight loss or skin damage” value in series [1] and in [4] was “No weight loss or skin damage” in each case. Further, the MIC in series [2] was 32 µM; against E. coli ATCC 11775, 16 µM; in the series on A. baumannii ATCC 19606 [3] (ATCC 19606, 24 h), 32 µM; against A. baumannii ATCC 19606 [3] (setting [8]), 32 µM; in the series on P. aeruginosa PAO1 it was 64 µM; against K. pneumoniae ATCC 13883, 16 µM. For the same sequence, the “inhibition of the A. baumannii ATCC19606 infection against the untreated control” value in the series with A. baumannii ATCC 19606 [5] (four days after intraperitoneal injection, at its MIC) is “one order of magnitude”. Also, the “reduction of A. baumannii bacterial load, deep thigh infection model” value in the series on A. baumannii ATCC 19606 [5] was “up to two orders of magnitude”. For the same sequence, the “reduction of A. baumannii bacterial load, skin abscess model” value with A. baumannii ATCC 19606 [6] was “up to two orders of magnitude; also recorded: inhibited the proliferation of the infection for up to 4 d after treatment”.
Regarding KWRLLIRWRIQK [IDR-2009], the “cytotoxicity of the parental peptide” value in the series with HEK293T cells is “did show cytotoxicity”.
